Measured values reported in US10336762B2 (priority 2017, dated 2019).

Tests used:
[1] = molecular target: IRAK4 enzyme (Homo sapiens (Human), UniProt Q9NWZ3); test: biochemical; type: biochemical; conditions: IRAK4 enzyme, TR-FRET, 500 μM ATP
[2] = test system: TNFα; test: cells; type: cell-based, human; conditions: Homo sapiens, Monocyte, LPS-stimulated human monocytes, TNFα by TR-FRET; read-out: EC50 TNF

Sequence of IRAK4 enzyme (Q9NWZ3 whole entry): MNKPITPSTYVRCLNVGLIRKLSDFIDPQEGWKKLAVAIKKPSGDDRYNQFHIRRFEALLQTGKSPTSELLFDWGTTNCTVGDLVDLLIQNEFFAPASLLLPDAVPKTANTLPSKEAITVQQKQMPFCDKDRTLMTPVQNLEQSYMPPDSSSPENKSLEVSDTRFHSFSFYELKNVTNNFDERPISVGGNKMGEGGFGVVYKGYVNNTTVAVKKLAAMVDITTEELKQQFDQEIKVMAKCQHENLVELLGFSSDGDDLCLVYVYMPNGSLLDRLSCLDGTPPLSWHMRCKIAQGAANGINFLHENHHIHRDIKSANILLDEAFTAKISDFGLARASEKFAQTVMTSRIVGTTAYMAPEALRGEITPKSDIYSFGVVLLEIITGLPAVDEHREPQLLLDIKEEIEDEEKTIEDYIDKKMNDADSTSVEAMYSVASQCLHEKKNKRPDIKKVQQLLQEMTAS

CNC(=O)CCNC(=O)c1cnc(-c2ccc3cc(C#N)cnn23)cc1NC12CCC(O)(CC1)CC2 [Example 803, 6-(3-cyanopyrrolo[1,2-b]pyridazin-7-yl)-4-((4-hydroxybicyclo[2.2.2]octan-1-yl)amino)-N-(3-(methylamino)-3-oxopropyl)nicotinamide]
IC50 [1]: 0.001 µM
EC50 [2]: 0.327 µM

CN(C)C(=O)CCNC(=O)c1cnc(-c2ccc3cc(C#N)cnn23)cc1NC12CCC(O)(CC1)CC2 [Example 804, 6-(3-cyanopyrrolo[1,2-b]pyridazin-7-yl)-N-(3-(dimethylamino)-3-oxo-propyl)-4-((4-hydroxy-bicyclo[2.2.2]octan-1-yl)amino)nicotinamide]
IC50 [1]: < 0.001 µM
EC50 [2]: 0.048 µM

N#Cc1cnn2c(-c3cc(NC45CCC(O)(CC4)CC5)c(C(=O)NCCC(=O)N4CC(F)(F)C4)cn3)ccc2c1 [Example 805, 6-(3-cyanopyrrolo[1,2-b]pyridazin-7-yl)-N-(3-(3,3-difluoroazetidin-1-yl)-3-oxopropyl)-4-((4-hydroxybicyclo[2.2.2]octan-1-yl)amino) nicotinamide]
IC50 [1]: < 0.001 µM
EC50 [2]: 0.129 µM

CN1CCN(C(=O)CCNC(=O)c2cnc(-c3ccc4cc(C#N)cnn34)cc2NC23CCC(O)(CC2)CC3)CC1 [Example 806, 6-(3-cyanopyrrolo[1,2-b]pyridazin-7-yl)-4-((4-hydroxybicyclo[2.2.2]octan-1-yl)amino)-N-(3-(4-methylpiperazin-1-yl)-3-oxopropyl)nicotinamide]
IC50 [1]: 0.003 µM
EC50 [2]: 0.349 µM

CC(C)Nc1cc(-c2ccc3cc(C#N)cnn23)ncc1C(=O)NCC(=O)N1CC(F)(F)C1 [Example 807, 6-(3-cyanopyrrolo[1,2-b]pyridazin-7-yl)-N-(2-(3,3-difluoroazetidin-1-yl)-2-oxoethyl)-4-(isopropylamino) nicotinamide]
IC50 [1]: 0.002 µM
EC50 [2]: 0.075 µM

CC(C)(C)OC(=O)CNC(=O)c1cnc(-c2ccc3cc(C#N)cnn23)cc1NC12CCC(O)(CC1)CC2 [Example 808, tert-butyl (6-(3-cyano-pyrrolo[1,2-b]pyridazin-7-yl)-4-((4-hydroxy-bicyclo[2.2.2]octan-1-yl)amino)nicotinoyl) glycinate]
IC50 [1]: < 0.001 µM
EC50 [2]: 0.015 µM

N#Cc1cnn2c(-c3cc(NC45CCC(O)(CC4)CC5)c(C(=O)NCCN4CCCC4=O)cn3)ccc2c1 [Example 809, 6-(3-cyanopyrrolo[1,2-b]pyridazin-7-yl)-4-((4-hydroxybicyclo[2.2.2]octan-1-yl)amino)-N-(2-(2-oxopyrrolidin-1-yl)ethyl)nicotinamide]
IC50 [1]: 0.001 µM
EC50 [2]: 0.166 µM

CC(C)(O)C(=O)CNC(=O)c1cnc(-c2ccc3cc(C#N)cnn23)cc1NC12CCC(O)(CC1)CC2 [Example 810, 6-(3-cyanopyrrolo[1,2-b]pyridazin-7-yl)-N-(3-hydroxy-3-methyl-2-oxobutyl)-4-((4-hydroxy-bicyclo[2.2.2]octan-1-yl)amino)nicotinamide]
IC50 [1]: < 0.001 µM
EC50 [2]: 0.009 µM

N#Cc1cnn2c(-c3cc(NC45CCC(O)(CC4)CC5)c(C(=O)NCC(=O)c4ccccc4)cn3)ccc2c1 [Example 811, 6-(3-cyanopyrrolo[1,2-b]pyridazin-7-yl)-4-((4-hydroxybicyclo[2.2.2]octan-1-yl)amino)-N-(2-oxo-2-phenylethyl) nicotinamide]
IC50 [1]: < 0.001 µM
EC50 [2]: 0.032 µM

CC(C)Nc1cc(-c2ccc3cc(C#N)cnn23)ncc1C(=O)NCC(=O)OC(C)(C)C [Example 812, tert-butyl (6-(3-cyano-pyrrolo[1,2-b]pyridazin-7-yl)-4-(isopropylamino)nicotinoyl)glycinate]
IC50 [1]: < 0.001 µM
EC50 [2]: 0.038 µM

CC(C)(C)NC(=O)CNC(=O)c1cnc(-c2ccc3cc(C#N)cnn23)cc1NC12CCC(O)(CC1)CC2 [Example 813, N-(2-(tert-butylamino)-2-oxoethyl)-6-(3-cyano-pyrrolo[1,2-b]pyridazin-7-yl)-4-((4-hydroxy-bicyclo[2.2.2]octan-1-yl)amino)nicotinamide]
IC50 [1]: < 0.001 µM
EC50 [2]: 0.092 µM

CN(C(=O)CNC(=O)c1cnc(-c2ccc3cc(C#N)cnn23)cc1NC12CCC(O)(CC1)CC2)C(C)(C)C [Example 814, N-(2-(tert-butyl(methyl)amino)-2-oxoethyl)-6-(3-cyanopyrrolo[1,2-b]pyridazin-7-yl)-4-((4-hydroxybicyclo[2.2.2]octan-1-yl)amino) nicotinamide]
IC50 [1]: < 0.001 µM
EC50 [2]: 0.04 µM

COC(=O)NC[C@H]1C[C@H](Nc2cc(-c3ccc4cc(C#N)cnn34)ncc2C(=O)NCC(=O)C(C)(C)O)C1 [Example 815, methyl (((1r,3r)-3-((2-(3-cyanopyrrolo[1,2-b]pyridazin-7-yl)-5-((3-hydroxy-3-methyl-2-oxobutyl)carbamoyl)pyridin-4-yl)amino)cyclo-butyl)methyl)carbamate]
IC50 [1]: < 0.001 µM
EC50 [2]: 0.015 µM

COC(=O)NC[C@H]1C[C@H](Nc2cc(-c3ccc4cc(C#N)cnn34)ncc2C(=O)NCCC(C)(C)NC(=O)OC(C)(C)C)C1 [Example 816, methyl (((1r,3r)-3-((5-((3-((tert-butoxy-carbonyl)amino)-3-methylbutyl)carbamoyl)-2-(3-cyanopyrrolo[1,2-b]pyridazin-7-yl)pyridin-4-yl)amino)cyclobutyl)methyl)carbamate]
IC50 [1]: < 0.001 µM
EC50 [2]: 0.041 µM

CC(C)Nc1cc(-c2ccc3cccnn23)ncc1C(=O)NC[C@@H](F)C(C)(C)O [Example 817, (R)-N-(2-fluoro-3-hydroxy-3-methylbutyl)-4-(isopropyl-amino)-6-(pyrrolo[1,2-b]pyridazin-7-yl)nicotinamide]
IC50 [1]: 0.006 µM
EC50 [2]: 0.165 µM

COC(=O)NC[C@H]1C[C@H](Nc2cc(-c3ccc4cccnn34)ncc2C(=O)NC[C@@H](F)C(C)(C)O)C1 [Example 818, methyl (((1R,3r)-3-((5-(((R)-2-fluoro-3-hydroxy-3-methylbutyl)carbamoyl)-2-(pyrrolo[1,2-b]pyridazin-7-yl)pyridin-4-yl)amino)cyclo-butyl)methyl)carbamate]
IC50 [1]: 0.004 µM
EC50 [2]: 0.224 µM

COC(=O)NC[C@H]1C[C@H](Nc2cc(-c3ccc4cc(C#N)cnn34)ncc2C(=O)NCCC(C)(C)N)C1 [Example 819, methyl (((1r,3r)-3-((5-((3-amino-3-methylbutyl)carbamoyl)-2-(3-cyano-pyrrolo[1,2-b]pyridazin-7-yl)pyridin-4-yl)amino)cyclo-butyl)methyl)carbamate]
IC50 [1]: < 0.001 µM
EC50 [2]: 0.027 µM

CC(C)(O)[C@H](F)CNC(=O)c1cnc(-c2ccc3cc(C#N)cnn23)cc1Nc1ccc2ncccc2c1 [Example 820, (R)-6-(3-cyanopyrrolo[1,2-b]pyridazin-7-yl)-N-(2-fluoro-3-hydroxy-3-methylbutyl)-4-(quinolin-6-ylamino)nicotinamide]
IC50 [1]: < 0.001 µM
EC50 [2]: 0.059 µM

CC(C)(O)[C@H](F)CNC(=O)c1cnc(-c2ccc3cc(C#N)cnn23)cc1Nc1ccc2cnccc2n1 [Example 821, (R)-4-((1,6-naphthyridin-2-yl)amino)-6-(3-cyano-pyrrolo[1,2-b]pyridazin-7-yl)-N-(2-fluoro-3-hydroxy-3-methylbutyl)nicotinamide]
IC50 [1]: < 0.001 µM
EC50 [2]: 0.051 µM
